Measured values: ChEMBL document CHEMBL3769371, “1-[(2E)-3-Phenylprop-2-enoyl]-1H-benzimidazoles as anticancer agents: synthesis, crystal structure analysis and binding studies of the most potent anticancer molecule with serum albumin” (Medchemcomm, 2015)

Experiments:
[1] = Cytotoxicity against human SNB75 cells assessed as cell growth at 10^-5 M after 48 hrs by SRB assay; assay type: functional; conditions: SNB-75, 48 h, read-out: Activity
[2] = Cytotoxicity against human TK10 cells assessed as cell growth at 10^-5 M after 48 hrs by SRB assay; assay type: functional; conditions: TK-10, 48 h, read-out: Activity
[3] = test system: NCI-H23; experiment: Cytotoxicity against human NCI-H23 cells assessed as cell growth at 10^-5 M after 48 hrs by SRB assay; assay type: functional; conditions: NCI-H23, 48 h, read-out: Activity
[4] = Cytotoxicity against human SNB75 cells after 48 hrs by SRB assay; assay type: functional; conditions: SNB-75, 48 h
[5] = Cytotoxicity against human SF539 cells after 48 hrs by SRB assay; assay type: functional; conditions: SF-539, 48 h
[6] = test system: Malme-3M; experiment: Cytotoxicity against human MALME-3M cells assessed as cell growth at 10^-5 M after 48 hrs by SRB assay; assay type: functional; conditions: read-out: Activity
[7] = target: T1, Albumin (Homo sapiens, UniProt P02768); experiment: Binding affinity to human serum albumin at 0.25 to 2 uM at 288 K by fluorescence microscopic analysis; assay type: ADME; conditions: isolated protein
[8] = target: T1, Albumin; experiment: Binding affinity to human serum albumin assessed as fluorescence quenching in steady state at 0.25 uM at 303 K by fluorescence microscopic analysis; assay type: ADME; conditions: isolated protein
[9] = Cytotoxicity against human COLO205 cells assessed as cell growth at 10^-5 M after 48 hrs by SRB assay; assay type: functional; conditions: COLO 205, 48 h, read-out: Activity
[10] = test system: NCI-H322M; experiment: Cytotoxicity against human NCI-H322M cells assessed as cell growth at 10^-5 M after 48 hrs by SRB assay; assay type: functional; conditions: read-out: Activity
[11] = Cytotoxicity against human SW620 cells assessed as cell growth at 10^-5 M after 48 hrs by SRB assay; assay type: functional; conditions: SW-620, 48 h, read-out: Activity
[12] = Antiproliferative activity against human PC3 cells at 10'5 M; assay type: functional, PC-3
[13] = Cytotoxicity against human COLO205 cells after 48 hrs by SRB assay; assay type: functional; conditions: COLO 205, 48 h
[14] = Cytotoxicity against human IGROV1 cells assessed as cell growth at 10^-5 M after 48 hrs by SRB assay; assay type: functional; conditions: IGROV-1, 48 h, read-out: Activity
[15] = Cytotoxicity against human SF539 cells assessed as cell growth at 10^-5 M after 48 hrs by SRB assay; assay type: functional; conditions: SF-539, 48 h, read-out: Activity
[16] = Cytotoxicity against human SF268 cells assessed as cell growth at 10^-5 M after 48 hrs by SRB assay; assay type: functional; conditions: SF-268, 48 h, read-out: Activity
[17] = test system: CCRF-CEM; experiment: Cytotoxicity against human CCRF-CEM cells assessed as cell growth at 10^-5 M after 48 hrs by SRB assay; assay type: functional; conditions: read-out: Activity
[18] = Cytotoxicity against human HCT15 cells after 48 hrs by SRB assay; assay type: functional; conditions: HCT-15, 48 h
[19] = Cytotoxicity against human SW620 cells after 48 hrs by SRB assay; assay type: functional; conditions: SW-620, 48 h
[20] = target: T1, Albumin; experiment: Binding affinity to human serum albumin at 0.25 to 2 uM at 298 K by fluorescence microscopic analysis; assay type: ADME; conditions: isolated protein
[21] = Cytotoxicity against human HOP62 cells assessed as cell growth at 10^-5 M after 48 hrs by SRB assay; assay type: functional; conditions: HOP-62, 48 h, read-out: Activity
[22] = target: T1, Albumin; experiment: Binding affinity to human serum albumin assessed Stern-Volmer quenching constant at 0.25 to 2 uM at 298 K by fluorescence microscopic analysis; assay type: ADME; conditions: isolated protein
[23] = test system: MCF7; experiment: Antiproliferative activity against human MCF7 cells at 10'5 M; assay type: functional
[24] = test system: CCRF-CEM; experiment: Cytotoxicity against human CCRF-CEM cells after 48 hrs by SRB assay; assay type: functional
[25] = Cytotoxicity against human NCI-ADR-RES cells assessed as cell growth at 10^-5 M after 48 hrs by SRB assay; assay type: functional; conditions: read-out: Activity
[26] = test system: SK-MEL-2; experiment: Cytotoxicity against human SK-MEL-2 cells assessed as cell growth at 10^-5 M after 48 hrs by SRB assay; assay type: functional; conditions: SK-MEL-2, 48 h, read-out: Activity
[27] = test system: 786-0; experiment: Cytotoxicity against human 786-0 cells after 48 hrs by SRB assay; assay type: functional; conditions: 786-0, 48 h
[28] = Antiproliferative activity against human Hs 578T cells at 10'5 M; assay type: functional
[29] = Cytotoxicity against human OVCAR4 cells after 48 hrs by SRB assay; assay type: functional; conditions: OVCAR-4, 48 h
[30] = target: T1, Albumin; experiment: Binding affinity to human serum albumin at 0.25 to 2 uM at 303 K by fluorescence microscopic analysis in the absence of site probes; assay type: ADME; conditions: isolated protein
[31] = Cytotoxicity against human LOXIMVI cells assessed as cell growth at 10^-5 M after 48 hrs by SRB assay; assay type: functional; conditions: LOX IMVI, read-out: Activity
[32] = Cytotoxicity against human OVCAR3 cells after 48 hrs by SRB assay; assay type: functional; conditions: OVCAR-3, 48 h
[33] = Cytotoxicity against human RPMI8226 cells after 48 hrs by SRB assay; assay type: functional; conditions: RPMI-8226, 48 h
[34] = Cytotoxicity against human OVCAR3 cells assessed as cell growth at 10^-5 M after 48 hrs by SRB assay; assay type: functional; conditions: OVCAR-3, 48 h, read-out: Activity
[35] = Antiproliferative activity against human SNB75 cells at 10'5 M; assay type: functional, SNB-75
[36] = Antiproliferative activity against human TK10 cells at 10'5 M; assay type: functional, TK-10
[37] = test system: MDA-MB-468; experiment: Cytotoxicity against human MDA-MB-468 cells assessed as cell growth at 10^-5 M after 48 hrs by SRB assay; assay type: functional; conditions: MDA-MB-468, 48 h, read-out: Activity
[38] = Cytotoxicity against human MOLT4 cells after 48 hrs by SRB assay; assay type: functional; conditions: MOLT-4, 48 h
[39] = Cytotoxicity against human IGROV1 cells after 48 hrs by SRB assay; assay type: functional; conditions: IGROV-1, 48 h
[40] = test system: MDA-MB-468; experiment: Cytotoxicity against human MDA-MB-468 cells after 48 hrs by SRB assay; assay type: functional; conditions: MDA-MB-468, 48 h
[41] = read-out: LC50 (the source's name)

T1 sequence (P02768 whole entry): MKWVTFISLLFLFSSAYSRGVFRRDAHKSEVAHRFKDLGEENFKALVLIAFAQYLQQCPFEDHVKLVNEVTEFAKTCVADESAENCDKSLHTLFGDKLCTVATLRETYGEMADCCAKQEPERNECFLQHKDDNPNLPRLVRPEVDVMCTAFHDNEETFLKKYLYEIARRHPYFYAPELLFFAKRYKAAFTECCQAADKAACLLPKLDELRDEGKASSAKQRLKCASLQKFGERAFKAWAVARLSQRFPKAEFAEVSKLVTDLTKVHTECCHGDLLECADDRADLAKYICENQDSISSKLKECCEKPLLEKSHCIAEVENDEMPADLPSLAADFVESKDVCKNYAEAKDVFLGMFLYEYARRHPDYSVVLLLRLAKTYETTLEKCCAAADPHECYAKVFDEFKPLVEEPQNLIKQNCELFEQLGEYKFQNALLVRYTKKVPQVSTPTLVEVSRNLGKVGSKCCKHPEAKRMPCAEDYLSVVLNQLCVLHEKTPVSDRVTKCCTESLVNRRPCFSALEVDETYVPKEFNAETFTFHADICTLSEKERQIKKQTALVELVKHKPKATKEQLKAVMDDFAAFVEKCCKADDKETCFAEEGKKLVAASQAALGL

Compound: O=C(/C=C/c1ccccc1)n1c(-c2ccc(Cl)cc2)nc2ccccc21
- growth at 10 µM [1]: 18.1%
- growth at 10 µM [2]: 18.6%
- growth at 10 µM [3]: -24.5%
- GI50 [4]: 3.13 µM
- TGI [4]: 12.8 µM
- CC50 [4, 41]: 40.5 µM
- GI50 [5]: 2.5 µM
- TGI [5]: 6.46 µM
- CC50 [5, 41]: 26.1 µM
- growth at 10 µM [6]: 15.9%
- K [7]: 2.24 ×10⁵ /mol
- K [8]: 5.68 ×10³ /mol
- growth at 10 µM [9]: -60.8%
- growth at 10 µM [10]: 45%
- growth at 10 µM [11]: -55.1%
- growth inhibition (GI) [12]: 93.91%
- GI50 [13]: 1.23 µM
- TGI [13]: 2.64 µM
- CC50 [13, 41]: 5.65 µM
- growth at 10 µM [14]: 10.4%
- growth at 10 µM [15]: -48.4%
- growth at 10 µM [16]: -11.8%
- growth at 10 µM [17]: -23.9%
- GI50 [18]: 1.21 µM
- TGI [18]: 2.88 µM
- CC50 [18, 41]: 6.9 µM
- GI50 [19]: 1.44 µM
- TGI [19]: 2.93 µM
- CC50 [19, 41]: 5.97 µM
- K [20]: 3.2 ×10⁴ /mol
- growth at 10 µM [21]: -48.8%
- KSV [22]: 1.37 ×10⁵ L/mol
- growth inhibition (GI) [23]: 89.71%
- GI50 [24]: 0.73 µM
- TGI [24]: 3.45 µM
- CC50 [24, 41]: > 100 µM
- growth at 10 µM [25]: 10.8%
- growth at 10 µM [26]: -36%
- GI50 [27]: 2.43 µM
- TGI [27]: 5.71 µM
- CC50 [27, 41]: 18 µM
- growth inhibition (GI) [28]: 80.03%
- GI50 [29]: 1.11 µM
- TGI [29]: 2.64 µM
- CC50 [29, 41]: 6.29 µM
- K [30]: 5.68 ×10³ /mol
- growth at 10 µM [31]: -82.9%
- GI50 [32]: 1.95 µM
- TGI [32]: 4.63 µM
- CC50 [32, 41]: 13.4 µM
- GI50 [33]: 0.61 µM
- TGI [33]: 3.82 µM
- CC50 [33, 41]: > 100 µM
- growth at 10 µM [34]: -57.2%
- growth inhibition (GI) [35]: 81.93%
- growth inhibition (GI) [36]: 81.42%
- growth at 10 µM [37]: -6.61%
- GI50 [38]: 1.13 µM
- TGI [38]: 6.73 µM
- CC50 [38, 41]: > 100 µM
- GI50 [39]: 1.27 µM
- TGI [39]: 2.88 µM
- CC50 [39, 41]: 6.53 µM
- GI50 [40]: 1.52 µM
- TGI [40]: 4.32 µM
- CC50 [40, 41]: 23.7 µM
